Results from US8420657B2 (Novartis AG, priority 2008, dated 2013).

Assays:
GST-JAK2(808-1132) = target: T1, GST-JAK2(808-1132) (Homo sapiens, UniProt O60674); assay: JAK2 kinase assay (Caliper mobility shift, LabChip 3000); type: biochemical
T1 construct: GST-JAK2(808-1132); purchased Invitrogen (Carlsbad, USA) #4288
Outline: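 Eight-point compound series (final 10–0.003 μM) tested on purchased GST-JAK2 kinase domain (808-1132). Peptide FITC-JAK3tide plus ATP reacted 60 min, 30 °C, then quenched with EDTA; turnover from charge-based separation of substrate and product.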

[1] = test system: JAK1/JAK2-dependent nuclear translocation of STAT1-GFP in HT1080 fibrosarcoma cells; assay: STAT1 nuclear translocation assay (Cellomics), IFN-γ stimulated HT1080 STAT1-GFP cells; type: cell-based; conditions: Homo sapiens, HT-1080, STAT1 translocation pathway
Outline: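 IC50 derived from percent nuclear STAT1-GFP translocation, computed from nuclear minus cytoplasmic GFP intensity against untreated baseline and DMSO-stimulated control. Stable HT1080 STAT1-GFP cells received compound (0.003–10 μM, 0.1% DMSO) 30 min ahead of a 2 h 100 ng/ml IFN-γ stimulus, then fixation and Hoechst nuclear masking.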

T1 sequence (O60674 808-1132): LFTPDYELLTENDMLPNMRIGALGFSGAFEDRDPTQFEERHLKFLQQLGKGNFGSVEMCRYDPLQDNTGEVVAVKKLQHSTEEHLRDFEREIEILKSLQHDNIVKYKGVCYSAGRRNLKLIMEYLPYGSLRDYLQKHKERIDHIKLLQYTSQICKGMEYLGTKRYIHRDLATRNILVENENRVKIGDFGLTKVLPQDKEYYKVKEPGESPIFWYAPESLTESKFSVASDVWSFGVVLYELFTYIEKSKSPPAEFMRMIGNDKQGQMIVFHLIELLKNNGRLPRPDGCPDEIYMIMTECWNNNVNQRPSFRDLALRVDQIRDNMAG

SMILES	IC50 (GST-JAK2(808-1132)) [nM]	IC50 [1] [nM]
OCCN1CCN(c2ccc(Nc3ncc4ccn(-c5cc(F)c(CN6CCOCC6)c(F)c5)c4n3)cn2)CC1 [Example 265, 2-(4-{5-[7-(3,5-Difluoro-4-morpholin-4-ylmethyl-phenyl)-7H-pyrrolo[2,3-d]pyrimidin-2-ylamino]-pyridin-2-yl}-piperazin-1-yl)-ethanol]	< 3	40
C[C@@H]1CN(c2ccc(Nc3ncc4ccn(-c5cc(F)c(C(=O)N6CCOCC6)c(F)c5)c4n3)cn2)C[C@H](C)N1 [Example 266, (4-{2-[6-(cis-3,5-Dimethyl-piperazin-1-yl)-pyridin-3-ylamino]-pyrrolo[2,3-d]pyrimidin-7-yl}-2,6-difluoro-phenyl)-morpholin-4-yl-methanone]	8.4	150
C[C@@H]1CN(c2ccc(Nc3ncc4ccn(-c5cc(F)c(CN6CCOCC6)c(F)c5)c4n3)cn2)C[C@H](C)N1 [Example 267, [7-(3,5-Difluoro-4-morpholin-4-ylmethyl-phenyl)-7H-pyrrolo[2,3-d]pyrimidin-2-yl]-[6-(cis-3,5-dimethyl-piperazin-1-yl)-pyridin-3-yl]-amine]	< 3	50
O=C(c1c(F)cc(-n2ccc3cnc(Nc4ccc(N5CCNC6(CC6)C5)nc4)nc32)cc1F)N1CCOCC1 [Example 268, (4-{2-[6-(4,7-Diaza-spiro[2.5]oct-7-yl)-pyridin-3-ylamino]-pyrrolo[2,3-d]pyrimidin-7-yl}-2,6-difluoro-phenyl)-morpholin-4-yl-methanone]	7.8	210
Fc1cc(-n2ccc3cnc(Nc4ccc(N5CCNC6(CC6)C5)nc4)nc32)cc(F)c1CN1CCOCC1 [Example 270, [6-(4,7-Diaza-spiro[2.5]oct-7-yl)-pyridin-3-yl]-[7-(3,5-difluoro-4-morpholin-4-ylmethyl-phenyl)-7H-pyrrolo[2,3-d]pyrimidin-2-yl]-amine]	4.3	35
CS(=O)(=O)c1ccc(-n2ccc3cnc(Nc4ccc(N5CCNC6(CC6)C5)nc4)nc32)cc1 [Example 272, [6-(4,7-Diaza-spiro[2.5]oct-7-yl)-pyridin-3-yl]-[7-(4-methanesulfonyl-phenyl)-7H-pyrrolo[2,3-d]pyrimidin-2-yl]-amine]	11	175
C[C@@H]1CN(c2ccc(Nc3ncc4ccn(-c5ccc(S(C)(=O)=O)cc5)c4n3)cn2)C[C@H](C)N1 [Example 273, [6-(cis-3,5-Dimethyl-piperazin-1-yl)-pyridin-3-yl]-[7-(4-methanesulfonyl-phenyl)-7H-pyrrolo[2,3-d]pyrimidin-2-yl]-amine]	6	190
CCOc1ccc(Nc2ncc3cc(C)n(-c4ccc(CC(=O)N5CCS(=O)(=O)CC5)c(F)c4)c3n2)cc1OCC [Example 286, 2-{4-[2-(3,4-Diethoxy-phenylamino)-6-methyl-pyrrolo[2,3-d]pyrimidin-7-yl]-2-fluoro-phenyl}-1-(1,1-dioxido-thiomorpholin-4-yl)-ethanone]	10.6	285
CCOc1ccc(Nc2ncc3cc(C)n(-c4ccc(C(=O)N5CCOCC5)c(F)c4)c3n2)cc1OCC [Example 287, {4-[2-(3,4-Diethoxy-phenylamino)-6-methyl-pyrrolo[2,3-d]pyrimidin-7-yl]-2-fluoro-phenyl}-morpholin-4-yl-methanone]	46.5	441
O=C(c1ccc(-n2ccc3cnc(Nc4ccc(CN5CCOCC5)cc4)nc32)cc1F)N1CCOCC1 [Example 288, {2-Fluoro-4-[2-(4-morpholin-4-ylmethyl-phenylamino)-pyrrolo[2,3-d]pyrimidin-7-yl]-phenyl}-morpholin-4-yl-methanone]	< 3	67.5
Cc1ccc(Nc2ncc3ccn(-c4cc(F)c(CN5CCOCC5)c(F)c4)c3n2)cc1C [Example 289, [7-(3,5-Difluoro-4-morpholin-4-ylmethyl-phenyl)-7H-pyrrolo[2,3-d]pyrimidin-2-yl]-(3,4-dimethyl-phenyl)-amine]	< 17	232
Cc1ccc(Nc2ncc3ccn(-c4cc(F)c(CN5CCS(=O)(=O)CC5)c(F)c4)c3n2)cc1C [Example 290, (3,4-Dimethyl-phenyl)-{7-[4-(1,1-dioxido-thiomorpholin-4-ylmethyl)-3,5-difluoro-phenyl]-7H-pyrrolo[2,3-d]pyrimidin-2-yl}-amine]	< 3	37
Cc1ccc(Nc2ncc3ccn(-c4ccc(C(=O)N5CCS(=O)(=O)CC5)c(F)c4)c3n2)cc1C [Example 291, {4-[2-(3,4-Dimethyl-phenylamino)-pyrrolo[2,3-d]pyrimidin-7-yl]-2-fluoro-phenyl}-(1,1-dioxido-thiomorpholin-4-yl)-methanone]	< 3	54

The remaining lines, values ahead:

IC50 (GST-JAK2(808-1132)) [nM]	IC50 [1] [nM]	SMILES
< 3	12.5	CCN1CCN(c2ccc(Nc3ncc4ccn(-c5ccc(CC(=O)N6CCS(=O)(=O)CC6)c(F)c5)c4n3)cc2C)CC1 [Example 292, 1-(1,1-Dioxido-thiomorpholin-4-yl)-2-(4-{2-[4-(4-ethyl-piperazin-1-yl)-3-methyl-phenylamino]-pyrrolo[2,3-d]pyrimidin-7-yl}-2-fluoro-phenyl)-ethanone]
< 3	8	CCN1CCN(c2ccc(Nc3ncc4ccn(-c5ccc(C(=O)N6CCOCC6)c(F)c5)c4n3)cc2C)CC1 [Example 293, (4-{2-[4-(4-Ethyl-piperazin-1-yl)-3-methyl-phenylamino]-pyrrolo[2,3-d]pyrimidin-7-yl}-2-fluoro-phenyl)-morpholin-4-yl-methanone]
< 3	415	Cc1ccc(Nc2ncc3ccn(-c4ccc(C(=O)N5CCOCC5)c(C)c4)c3n2)cc1C [Example 294, {4-[2-(3,4-Dimethyl-phenylamino)-pyrrolo[2,3-d]pyrimidin-7-yl]-2-methyl-phenyl}-morpholin-4-yl-methanone]
14.5	795	COc1cc(Nc2ncc3ccn(-c4ccc(C(=O)N5CCOCC5)c(F)c4)c3n2)ccc1Cl [Example 295, {4-[2-(4-Chloro-3-methoxy-phenylamino)-pyrrolo[2,3-d]pyrimidin-7-yl]-2-fluoro-phenyl}-morpholin-4-yl-methanone]
< 3	1100	COc1cc(Nc2ncc3ccn(-c4ccc(C(=O)N5CCOCC5)c(C)c4)c3n2)ccc1F [Example 296, {4-[2-(4-Fluoro-3-methoxy-phenylamino)-pyrrolo[2,3-d]pyrimidin-7-yl]-2-methyl-phenyl}-morpholin-4-yl-methanone]
30	2140	Cc1ccc(Nc2ncc3ccn(-c4ccc(C(=O)NCCN5CCOCC5)c(F)c4)c3n2)cc1C [Example 297, 4-[2-(3,4-Dimethyl-phenylamino)-pyrrolo[2,3-d]pyrimidin-7-yl]-2-fluoro-N-(2-morpholin-4-yl-ethyl)-benzamide]
23	2210	Cc1ccc(Nc2ncc3ccn(-c4ccc(C(=O)NCCN5CCN(C)CC5)c(F)c4)c3n2)cc1C [Example 298, 4-[2-(3,4-Dimethyl-phenylamino)-pyrrolo[2,3-d]pyrimidin-7-yl]-2-fluoro-N-[2-(4-methyl-piperazin-1-yl)-ethyl]-benzamide]
18.5	145	Cc1ccc(Nc2ncc3ccn(-c4ccc(C(=O)N5CCC(N(C)C)CC5)c(F)c4)c3n2)cc1C [Example 299, (4-Dimethylamino-piperidin-1-yl)-{4-[2-(3,4-dimethyl-phenylamino)-pyrrolo[2,3-d]pyrimidin-7-yl]-2-fluoro-phenyl}-methanone]
